Drawing on ChEMBL document CHEMBL3112541 (Bioorg Med Chem, 2014), this text covers Ki for eight compounds.

Among the targets are Carbonic anhydrase 9 (Homo sapiens, UniProt Q16790); Carbonic anhydrase 2 (Homo sapiens, UniProt P00918); Carbonic anhydrase 1 (Homo sapiens, UniProt P00915); Carbonic anhydrase 12 (Homo sapiens, UniProt O43570).

Chain of Carbonic anhydrase 1 (P00915 whole entry): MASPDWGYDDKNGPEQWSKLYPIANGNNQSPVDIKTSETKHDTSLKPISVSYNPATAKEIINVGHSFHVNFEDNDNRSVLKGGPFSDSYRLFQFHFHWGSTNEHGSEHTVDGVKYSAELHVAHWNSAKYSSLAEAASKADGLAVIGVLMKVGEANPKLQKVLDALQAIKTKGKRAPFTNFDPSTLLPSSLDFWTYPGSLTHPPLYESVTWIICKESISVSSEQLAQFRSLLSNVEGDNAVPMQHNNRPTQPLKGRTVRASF
Chain of Carbonic anhydrase 12 (O43570 whole entry): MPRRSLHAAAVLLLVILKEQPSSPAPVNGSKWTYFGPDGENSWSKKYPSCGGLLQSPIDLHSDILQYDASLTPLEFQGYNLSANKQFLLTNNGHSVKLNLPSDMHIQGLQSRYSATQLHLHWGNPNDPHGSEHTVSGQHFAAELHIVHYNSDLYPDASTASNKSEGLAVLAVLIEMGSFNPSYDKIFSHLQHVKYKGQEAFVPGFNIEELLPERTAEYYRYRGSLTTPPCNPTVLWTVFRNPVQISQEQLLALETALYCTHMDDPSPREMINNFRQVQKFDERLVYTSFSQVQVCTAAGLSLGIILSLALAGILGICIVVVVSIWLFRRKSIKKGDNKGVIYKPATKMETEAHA
Description for Carbonic anhydrase 12: Inhibition of human transmembrane carbonic anhydrase 12 by stopped-flow CO2 hydration assay
Description for Carbonic anhydrase 2: Inhibition of human cytosolic carbonic anhydrase 2 by stopped-flow CO2 hydration assay
Description for Carbonic anhydrase 9: Inhibition of human transmembrane carbonic anhydrase 9 by stopped-flow CO2 hydration assay

Consider `NS(=O)(=O)c1ccc(CCN2C(=O)c3ccc([N+](=O)[O-])cc3C2=O)cc1`, for which the inhibition constant (Ki) at Carbonic anhydrase 9 was > 10 µM. `NS(=O)(=O)c1cccc(N2C(=O)c3ccc([N+](=O)[O-])cc3C2=O)c1` displayed a Ki on Carbonic anhydrase 9 of 10 µM. Turning to `NS(=O)(=O)c1ccccc1N1C(=O)c2ccc([N+](=O)[O-])cc2C1=O`, the Ki at Carbonic anhydrase 9, on Carbonic anhydrase 2 and on Carbonic anhydrase 1 was > 10 µM in each case.

Compound `NS(=O)(=O)c1ccc(CN2C(=O)c3cccc([N+](=O)[O-])c3C2=O)cc1` gave an inhibition constant Ki on Carbonic anhydrase 9 of 0.873 µM. In the case of `NS(=O)(=O)c1ccccc1N1C(=O)c2cccc([N+](=O)[O-])c2C1=O`, the values for the Ki on Carbonic anhydrase 9, at Carbonic anhydrase 12 and at Carbonic anhydrase 1 were 7.82 µM, > 10 µM and > 10 µM, respectively. On Carbonic anhydrase 9, `NS(=O)(=O)c1ccc(CN2C(=O)c3ccc([N+](=O)[O-])cc3C2=O)cc1` returned an inhibitory constant (Ki) of 8.84 µM. On the same count and under the same terms, the figure for `NS(=O)(=O)c1ccc(N2C(=O)c3ccc([N+](=O)[O-])cc3C2=O)cc1` is 8.65 µM. `NS(=O)(=O)c1cccc(N2C(=O)c3cccc([N+](=O)[O-])c3C2=O)c1` showed an inhibitory constant (Ki) at Carbonic anhydrase 9 of 8.35 µM.

In general, Ki refers to a dissociation constant, usually derived from enzyme kinetics or from competition with a known ligand. Low readings indicate tighter binding, high ones weaker binding.
